Results: patent US20230124862A1, “BISMUTH THIOL COMPOUNDS AND COMPOSITIONS AND METHODS OF TREATING MICROBIAL CO-INFECTIONS” (Microbion Corporation, priority 2020, published 2023)
Converted amounts (≈) assume the structure as drawn. Read-outs that look alike come from different tables or passages of the source.

How the values were obtained:
[1] = system: Anaerobes (Bacteroides fragilis, Clostridium difficile); conditions: cited from earlier work
[2] = system: Anaerobes (Bacteroides fragilis, Clostridium difficile); test: Agar dilution MIC (Example 11); format: cell-based; conditions: read-out: MIC
Experimental: The susceptibility of anaerobic bacteria was determined by agar dilution using Brucella Agar (BD/BBL; Lot No. 5237692) supplemented with 5 μg/mL hemin (Sigma, St. Louis, Mo.; Lot No. 108K1088), 1 μg/mL Vitamin K1 and 5% (v/v) laked sheep blood (Cleveland Scientific, Bath, Ohio; Lot No. 322799).
Agar Dilution MIC Testing (Anaerobic Bacteria and Gonococci): MIC values for anaerobic bacteria were determined using a reference agar dilution method as described by CLSI (6). Organisms were grown at 35° C. in the Bactron II Anaerobic Chamber (Shel Lab, Cornelius, Oreg.) for approximately 48 hr prior to the assay. Drug dilutions and drug-supplemented agar plates were prepared manually per CLSI (6). The plates were allowed to stand at room temperature for 1 hr to allow the agar surface to dry and pre-reduced for approximately 1 hr in the anaerobe chamber prior to inoculation. Each isolate was suspended to the equivalent of a 0.5 McFarland standard in Brucella broth using a turbidity meter (Dade Behring MicroScan, West Sacramento, Calif.). Each bacterial cell suspension was then diluted 1:10 in Brucella broth and transferred to wells in a stainless steel replicator block which was used to inoculate the test plates. The prongs on the replicator deliver approximately 1-2 μl of inoculum to an agar surface. The resulting inoculum spots contained approximately 1×10^5 CFU/spot. After the inoculum dried, the inoculated drug-supplemented agar plates and no drug growth control plates were incubated at 35° C. for 42-48 hr in the anaerobe chamber. The MIC was read per CLSI guidelines (6).

[3] = system: Gram-negative organisms (P. aeruginosa, E. coli, A. baumannii, H. influenzae); conditions: P. aeruginosa ATCC 27853; cited from earlier work
[4] = system: Gram-negative organisms (P. aeruginosa, E. coli, A. baumannii, H. influenzae); test: Broth microdilution MIC with pulmonary surfactant (Survanta); format: cell-based
Haemophilus influenzae [5] = conditions: H. influenzae MMX 1224 (ATCC 49247); cited from earlier work
Haemophilus influenzae [6] = test: Broth microdilution MIC, Haemophilus influenzae clinical isolates; format: cell-based
[7] = C. difficile MMX 4381 (ATCC 700057)
[8] = Bacteroides fragilis, ATCC25285, B. fragilis MMX 123 (ATCC 25285), QC
[9] = C. difficile MMX 4381 (ATCC 700057), QC, CC^1
[10] = C. difficile MMX 5680 (NCTC 13336), ribotype 027, CC^1 MET^R
[11] = C. difficile MMX 5681 (NCTC 13307), ribotype 012, CC^R
[12] = C. difficile MMX 8272, ribotype 255, CC^1
[13] = C. difficile MMX 8279, ribotype 005, CC^R
[14] = C. difficile MMX 8281, ribotype 010, CC^R

## CCc1c(Cl)c(O)c(Cl)c(O)c1C(=O)O[C@H]1[C@H](O)[C@H](OC)[C@H](OC/C2=C\C=C\C[C@H](O)/C(C)=C/[C@H](CC)[C@@H](O[C@@H]3OC(C)(C)[C@@H](OC(=O)C(C)C)[C@H](O)[C@@H]3O)/C(C)=C/C(C)=C/C[C@@H]([C@@H](C)O)OC2=O)O[C@@H]1C [Fidaxomicin]
[1]; [7]
  CLSI QC range of MIC: (0.06-0.25) μg/mL
[2]; [8]
  MIC: > 64 µg/mL
[2]; [9]
  MIC: 0.25 µg/mL (≈ 0.236 µM)
[2]; [10]
  MIC: 4 µg/mL (≈ 3.78 µM)
[2]; [11]
  MIC: 0.5 µg/mL (≈ 0.473 µM)
[2]; [12]
  MIC: 0.5 µg/mL (≈ 0.473 µM)
[2]; [13]
  MIC: 0.5 µg/mL (≈ 0.473 µM)
[2]; [14]
  MIC: 0.5 µg/mL (≈ 0.473 µM)

## C[C@@H](O)[C@H]1C(=O)N2C(C(=O)O)=C(SCCN=CN)C[C@H]12 [Imspenem]
[3]
  CLSI acceptable MIC QC range: 1 to 4 µg/mL
[4]; A. baumanuii CSC 0288, 0 percent Survanta
  MIC: 16 µg/mL (≈ 53.4 µM)
[4]; A. baumanuii CSC 0288, 1 percent Survanta
  MIC: 16 µg/mL (≈ 53.4 µM)
[4]; A. baumanuii CSC 0288, 2.5 percent Survanta
  MIC: 16 µg/mL (≈ 53.4 µM)
[4]; A. baumanuii CSC 0288, 5 percent Survanta
  MIC: 16 µg/mL (≈ 53.4 µM)
[4]; B. cepucia MMX9040, 0 percent Survanta
  MIC: 8 µg/mL (≈ 26.7 µM)
[4]; B. cepucia MMX9040, 1 percent Survanta
  MIC: 8 µg/mL (≈ 26.7 µM)
[4]; B. cepucia MMX9040, 2.5 percent Survanta
  MIC: 8 µg/mL (≈ 26.7 µM)
[4]; B. cepucia MMX9040, 5 percent Survanta
  MIC: 8 µg/mL (≈ 26.7 µM)
[4]; B. cepucia MMX9040, 10 percent Survanta
  MIC: 8 µg/mL (≈ 26.7 µM)
[4]; H. Influenzae ATCC 49247, 0 percent Survanta
  MIC: 0.5 µg/mL (≈ 1.67 µM)
[4]; H. Influenzae ATCC 49247, 1 percent Survanta
  MIC: 0.5 µg/mL (≈ 1.67 µM)
[4]; H. Influenzae ATCC 49247, 2.5 percent Survanta
  MIC: 0.5 µg/mL (≈ 1.67 µM)
[4]; H. Influenzae MMX 2795, 0 percent Survanta
  MIC: 1 µg/mL (≈ 3.34 µM)
[4]; P. aeruginosa ATCC 27853, 0 percent Survanta
  MIC: 2 µg/mL (≈ 6.68 µM)
[4]; P. aeruginosa ATCC 27853, 1 percent Survanta
  MIC: 2 µg/mL (≈ 6.68 µM)
[4]; P. aeruginosa ATCC 27853, 2.5 percent Survanta
  MIC: 2 µg/mL (≈ 6.68 µM)
[4]; P. aeruginosa ATCC 27853, 5 percent Survanta
  MIC: 2 µg/mL (≈ 6.68 µM)
[4]; P. aeruginosa ATCC 27853, 10 percent Survanta
  MIC: 2 µg/mL (≈ 6.68 µM)
[4]; P. aeruginosa CDC 0444, 0 percent Survanta
  MIC: >16 µg/mL
[4]; P. aeruginosa CDC 0444, 1 percent Survanta
  MIC: >16 µg/mL
[4]; P. aeruginosa CDC 0444, 2.5 percent Survanta
  MIC: >16 µg/mL
[4]; P. aeruginosa CDC 0444, 5 percent Survanta
  MIC: >16 µg/mL
[4]; P. aeruginosa CDC 0444, 10 percent Survanta
  MIC: >16 µg/mL

## C[C@H]1COc2c(N3CCN(C)CC3)c(F)cc3c(=O)c(C(=O)O)cn1c23 [LEV]
Haemophilus influenzae [5]
  CLSI Quality Control Range (MIC): (0.008-0.03)
Haemophilus influenzae [6]; H. influenzae MMX 0797, BLNAR
  MIC: 0.015 µg/mL (≈ 0.0415 µM)
Haemophilus influenzae [6]; H. influenzae MMX 1224 (ATCC 49247)
  MIC: 0.015 µg/mL (≈ 0.0415 µM)
Haemophilus influenzae [6]; H. influenzae MMX 1302
  MIC: 0.015 µg/mL (≈ 0.0415 µM)
Haemophilus influenzae [6]; H. influenzae MMX 1304
  MIC: 0.015 µg/mL (≈ 0.0415 µM)
Haemophilus influenzae [6]; H. influenzae MMX 1740
  MIC: 0.015 µg/mL (≈ 0.0415 µM)
Haemophilus influenzae [6]; H. influenzae MMX 1741
  MIC: 0.015 µg/mL (≈ 0.0415 µM)
Haemophilus influenzae [6]; H. influenzae MMX 2795, BLNAR
  MIC: 0.015 µg/mL (≈ 0.0415 µM)
Haemophilus influenzae [6]; H. influenzae MMX 2796, BLNAR
  MIC: 0.015 µg/mL (≈ 0.0415 µM)
Haemophilus influenzae [6]; H. influenzae MMX 2798, BLNAR
  MIC: 0.015 µg/mL (≈ 0.0415 µM)
Haemophilus influenzae [6]; H. influenzae MMX 2799, BLNAR
  MIC: 0.015 µg/mL (≈ 0.0415 µM)
Haemophilus influenzae [6]; H. influenzae MMX 5458
  MIC: 0.015 µg/mL (≈ 0.0415 µM)
Haemophilus influenzae [6]; H. influenzae MMX 5461
  MIC: 0.03 µg/mL (≈ 0.083 µM)
Haemophilus influenzae [6]; H. influenzae MMX 5469
  MIC: 0.015 µg/mL (≈ 0.0415 µM)
Haemophilus influenzae [6]; H. influenzae MMX 5494
  MIC: 0.015 µg/mL (≈ 0.0415 µM)
Haemophilus influenzae [6]; H. influenzae MMX 5495
  MIC: 0.015 µg/mL (≈ 0.0415 µM)
Haemophilus influenzae [6]; H. influenzae MMX 5499
  MIC: 0.015 µg/mL (≈ 0.0415 µM)

## Cc1ncc([N+](=O)[O-])n1CCO [Metronidazole]
[1]; B. fragilis MMX 123 (ATCC 25285)
  CLSI QC range of MIC: (0.25-1) μg/mL
[1]; [7]
  CLSI QC range of MIC: (0.12-0.5) μg/mL
[2]; [8]
  MIC: 0.5 µg/mL (≈ 2.92 µM)
[2]; [9]
  MIC: 0.5 µg/mL (≈ 2.92 µM)
[2]; [10]
  MIC: > 64 µg/mL
[2]; [11]
  MIC: 0.5 µg/mL (≈ 2.92 µM)
[2]; [12]
  MIC: 0.5 µg/mL (≈ 2.92 µM)
[2]; [13]
  MIC: 0.5 µg/mL (≈ 2.92 µM)
[2]; [14]
  MIC: 8 µg/mL (≈ 46.7 µM)
